These results are taken from the METLIN SMRT retention time set (Domingo-Almenara et al. 2019).

The data set in a line: gradient 5% acetonitrile 3 min, to 50% in 2 min, to 85% in 15 min, held 3 min, 100 µL/min. The following applies: column: Zorbax Extend-C18 2.1 x 50 mm; eluents: water / acetonitrile, 0.1% formic acid. Put shortly: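 Values are retention times taken from adduct peaks that software picked and an analyst inspected. The pure standards were run as mixtures of ~100 molecules on HPLC linked to a quadrupole time-of-flight mass spectrometer, in positive and negative ionization mode. A Zorbax Extend-C18 column (2.1 × 50 mm, 1.8 μm) was used at 100 μL/min with water and acetonitrile, each including 0.1% formic acid.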
Take `O=S(=O)(NCc1nc(-c2ccc(-c3csc(C4CC4)n3)cc2)no1)c1ccccc1`: the RP-LC retention time was found to be 1100 s.
In the case of `CC1CO/C(=C2\C(=O)OCC2C)C1` (stereo not given) it was 812 s; in that of `O=c1c2cc(-c3ccc(F)cc3)nn2ccn1Cc1noc(CN2CCCCCC2)n1`, 683 s; in that of `Cc1[nH]c(C)c(S(=O)(=O)N2CCC(C(=O)N3CCc4ccccc43)CC2)c1C(=O)N1CCCCC1`, 778 s.
In the case of `CCCCCCNC(=O)C1CCN(C(=O)C(C)(C)C)CC1` it was 804 s.
In the case of `CC1(C(N)=O)CC(c2ccccc2)=NO1` (stereo not given) it was 828 s.
As for `CC(C)Cc1ccc(S(=O)(=O)N2CCc3c(c(-c4nnc(-c5ccccc5)o4)nn3C)C2)cc1`, the RP-LC retention time amounted to 1150 s.
`Cc1cc(OCC(=O)Nc2ccccc2C#N)nc(-c2ccc(F)cc2)n1` showed an RP-LC retention time of 964 s.
The compound `Clc1ccc(Cc2nnc3ccc(Cl)nn23)cc1` displayed an RP-LC retention time of 823 s.
On to `COc1ccc(Nc2nc(C(=O)Nc3ccc4c(c3)OCCO4)cs2)c(OC)c1`, for which the RP-LC retention time amounted to 865 s.
`O=C(COc1ccccc1)N1CCCC(c2n[nH]c(C3CC3)n2)C1` (stereo not given) had an RP-LC retention time of 637 s.
In the case of `Cc1ccc(CNC(=O)C2CCCN(c3cnc4nc(C)c(C)nc4c3)C2)cc1` (stereo not given) it was 741 s; in that of `CCCNC(=O)C1CCCN(c2nc(C)nc3onc(C)c23)C1` (stereo not given), 690 s; in that of `O=C(c1ccco1)N1CCN(c2nc(-c3ccc(Cl)cc3)nc3ccccc23)CC1`, 747 s.
The compound `N#Cc1ccc(Cn2cc(C(=O)C(N)=O)c3ccccc32)cc1` gave an RP-LC retention time of 810 s.
Then `COc1ccc(C2(C(=O)N3CCn4ccnc4C3C(C)C)CC2)cc1` (stereo not given), with 568 s; and `Cc1ccc(NC(=O)Cn2c(C)nc3onc(C)c3c2=O)cc1F`, with 735 s; and `O=C(Nc1ccccc1)C1CCCN(c2nc3ccsc3c(=O)n2Cc2ccc(F)cc2)C1` (stereo not given), with 971 s.
Then `O=C(c1ccco1)N1CCC2(CC1)NCCc1c2[nH]c2ccccc12`, with 631 s; and `Cc1ccc(CNC(=O)Nc2ccc3nnc(C)n3c2)cc1`, with 661 s.
On to `COC(=O)c1c(N)n(-c2cccc(F)c2)c2nc3ccccc3nc12`, for which the RP-LC retention time is 685 s.
In the case of `Cn1nc2n(c1=O)CCC(NS(=O)(=O)c1cccnc1)CC2` (stereo not given) it was 579 s.
In the case of `COc1ccc(CNC(=O)Nc2ccc(-c3nc(-c4ccccc4)co3)cc2)cc1` it was 1050 s; in that of `Cc1oc2c(c1C(=O)N(C)C)CN(S(=O)(=O)Cc1ccccc1)CC2`, 740 s; in that of `COc1cccc(C(=O)N2C[C@@H]3C[C@H](NC(=O)c4ccccc4)[C@H]2C3)c1OC`, 682 s.
Then `CN1CCCc2cc(C(=O)NCc3ccc(F)cc3)sc21`, with 906 s; and `Cc1cc(N2CCOCC2)nc(Nc2ccc(NC(=O)C(C)Oc3ccccc3)cc2)n1` (stereo not given), with 580 s.
For `O=C(O)c1cccnc1N1CCCCC1`, the RP-LC retention time stood at 575 s.
In the case of `CCC(C)NC(=O)C1CCN(Cc2cc3ccccc3n2Cc2cccc(Cl)c2)CC1` (stereo not given) it was 796 s; in that of `Cc1nnc2cc(N3CCN(C(=O)Nc4ccccc4F)CC3)cnn12`, 542 s.
Then `O=C(Cn1c(=O)oc2cc(Cl)ccc21)N1CCN(c2ccccn2)CC1`, with 630 s.
`COc1ccc(NC(=O)Cn2c(C(F)(F)F)nc3cc4c(cc32)OCCO4)cc1` registered an RP-LC retention time of 829 s.
In the case of `CCn1c(=O)c(N2CCC(NC(=O)NCCc3ccccc3)CC2)nc2ccccc21` it was 882 s; in that of `CS(=O)(=O)N1CCCC1C(=O)Nc1cccc(F)c1` (stereo not given), 730 s.
Then `Cc1cccc(N(C)S(=O)(=O)c2ccc3c(c2)CCCC(=O)N3)c1`, with 813 s.
For the compound `Cn1nc(C(=O)N2CCCCC2)c2c1CCN(C(=O)CCC(=O)NC1CCCCCC1)C2`, the RP-LC retention time turned out to be 728 s.
In the case of `Cc1cc(C)cc(C(=O)N2CCCC(COc3ccc(C(=O)NC(C)C)cc3)C2)c1` (stereo not given) it was 931 s; in that of `Cc1[nH]c(C(=O)N2CCC(CC(=O)NC(C)c3ccccc3)CC2)c(C)c1C(=O)OC(C)C` (stereo not given), 832 s; in that of `Cc1ccc(CNC(=O)C2(C)CCCN(C(=O)Nc3ccc(C)cc3C)C2)cc1` (stereo not given), 947 s.
In the case of `Cc1ccc(-c2cc(=O)n(CC(=O)Nc3nccs3)cn2)cc1` it was 691 s; in that of `Cc1ccc(NC(=O)Cn2c(C)nc3c(sc4nc(-c5ccccc5)ccc43)c2=O)cc1Cl`, 1030 s; in that of `O=C(Nc1ccccc1Cl)Nc1c(-c2ccc(F)cc2)nc2ccccn12`, 695 s.
As to `CCC(C)CC(=O)N1CCCN(C2=NS(=O)(=O)C(c3ccc(C)cc3)=C2C)CC1` (stereo not given), the RP-LC retention time was 900 s.
Then `CCCCn1c(=O)c2ccccc2n(Cc2nc(-c3ccc(CC)cc3)no2)c1=O`, with 1310 s.
Then `COCCC(=O)N1CCC(Oc2nccnc2N2CCOCC2)C1` (stereo not given), with 613 s; and `CCc1ccc(C(=O)Nc2cnn(CC)c(=O)c2N2CCOCC2)cc1`, with 1070 s; and `Oc1c(C(c2ccc(F)cc2)N2CCN(c3cccc(Cl)c3)CC2)sc2ncnn12` (stereo not given), with 852 s.
Turning to `CC(C)(C)S(=O)(=O)c1ccc(N2CCN(Cc3ccccc3)CC2)nn1`, the RP-LC retention time was found to be 566 s.
In turn, `O=C(Nc1cc(-c2ccccn2)no1)c1ccccc1F` gave an RP-LC retention time of 774 s.
On to `COC(=O)c1cc(C)nc2c1c(=O)n(Cc1ccccc1F)c(=O)n2Cc1ccco1`, for which the RP-LC retention time worked out at 1070 s.
In turn, `COc1ccccc1OCCNC(=O)CCc1nnc2c3cc(-c4ccc(F)cc4)nn3ccn12` showed an RP-LC retention time of 752 s.
The compound `c1ccc2c(-c3nc(C4CC4)no3)nnc(NC3CCCC3)c2c1` came in with an RP-LC retention time of 725 s.
Regarding `N#Cc1cccc(N2C=C(C(=O)N3CCCC3)S(=O)(=O)c3ccccc32)c1`, the RP-LC retention time came out at 720 s.
Then `O=S(=O)(c1ccc2nncn2c1)N(Cc1cccc(F)c1)c1ccc(F)cc1`, with 857 s; and `Cc1ccc(NC(=O)Cn2nc3c(N4CCCCCC4)nccn3c2=O)c(C)c1`, with 714 s.
With `Cc1cccc2nnc(N3CCC(C(=O)Nc4ccc(Cl)cc4)CC3)n12`, the RP-LC retention time is 656 s.
Compound `COc1ccc(-c2noc(-c3ccc(N4CCN(c5cccc(OC)c5)CC4)nc3)n2)cc1` came in with an RP-LC retention time of 1340 s.
In the case of `COc1cccc(CCC(=O)N2C[C@@H]3C[C@H](NC(=O)c4cccs4)[C@H]2C3)c1` it was 728 s.
Then `CNC(=O)C1CCCN(c2nc3ncn(CC(=O)Nc4cc(C)cc(C)c4)c(=O)c3s2)C1` (stereo not given), with 694 s.
`O=C(NCCCN1CCOCC1)C1CCCN(c2nc3ccccc3n(Cc3ccccc3)c2=O)C1` (stereo not given) gave an RP-LC retention time of 720 s.
`Cc1ccc(NC(=O)N2CCCC2C(=O)NC(C)C)cc1` (stereo not given) came in with an RP-LC retention time of 694 s.
In turn, `O=c1ccc(N2CCCN(S(=O)(=O)c3ccc(F)cc3)CC2)nn1-c1ccccc1` gave an RP-LC retention time of 846 s.
As for `Cc1ccc(-c2nnc(CC(=O)NCCc3cccs3)o2)cc1`, the RP-LC retention time came to 771 s.
In the case of `CCN(CC)CCCNC(=O)Cn1c2ccccc2c2cnn(C)c(=O)c21`, the RP-LC retention time worked out at 596 s.
Then `COc1nn(C)cc1C(=O)NCC(c1ccco1)N1CCN(c2ccc(F)cc2)CC1` (stereo not given), with 581 s; and `O=C(NCc1ccccc1C(F)(F)F)C1CCN(c2cncnc2N2CCOCC2)CC1`, with 644 s.
Then `O=C(CN1CCN(Cc2cccc(Cl)c2)C1=O)NCc1ccc(N2CCCC2)cc1`, with 854 s; and `COCCc1noc(C2CN(C(=O)C3(c4ccc(OC)cc4)CC3)C2)n1`, with 738 s; and `Cc1cc2c(cc1S(=O)(=O)N1CCCC1C(=O)Nc1ccc(F)cc1Cl)OC(C)C(=O)N2` (stereo not given), with 849 s.
In the case of `O=C(NCc1cccnc1)C1c2ccccc2C(=O)N1C1CCCCCC1` (stereo not given) it was 624 s; in that of `COc1cccc(CN2CCC(N3C(=O)C4(CCCCC4)C3c3ccncc3)CC2)c1OC` (stereo not given), 601 s; in that of `CCc1ccc(NC(=O)CSc2nnc3c4cc(-c5ccc(F)cc5)nn4ccn23)cc1`, 984 s.
`Fc1ccc(Nc2nc(NCC3CCCO3)nc3c2cnn3-c2ccccc2)cc1` (stereo not given) returned an RP-LC retention time of 1050 s.
In the case of `CC(=O)Nc1ccc(S(=O)(=O)N2CCC(CN3CCCCCC3)CC2)cc1` it was 588 s; in that of `COC(=O)C1=CN(c2ccc(F)cc2C)c2ccccc2S1(=O)=O`, 911 s; in that of `COc1ccc(CN2CC3(CCN(S(=O)(=O)c4ccccc4Cl)CC3)C2=O)cc1`, 913 s.
For `Cc1noc(-c2ccc(OC3CN(C(=O)c4cc(F)ccc4F)C3)cc2)n1`, the RP-LC retention time was determined as 868 s.
Then `O=C(NC1CCCCCCC1)C1CCN(C(=O)c2ncn3c2COC(c2ccccc2)C3)CC1` (stereo not given), with 885 s.
In the case of `O=S(=O)(c1c(F)cccc1F)N1CCC2(CC1)OCCS2` it was 860 s; in that of `COc1ccc2c(c1)CCc1sc(NC(=O)c3ccc(C)cc3)nc1-2`, 1150 s.
